The target of the assay is T1, human HSP70 (Homo sapiens, UniProt P0DMV8).
T1 construct: gene HSPA1A
Kind of assay: citrate synthase thermoprotection (chaperone) assay, […] nm DTNB. In kind it is biochemical. The following applies: 0.5 µM porcine heart citrate synthase, 1.8 µM HSP, 43 °C, 50 mM HEPES pH 8.0; activity read at 25 °C; inhibitor concentration not stated.

T1 sequence (P0DMV8 2-641): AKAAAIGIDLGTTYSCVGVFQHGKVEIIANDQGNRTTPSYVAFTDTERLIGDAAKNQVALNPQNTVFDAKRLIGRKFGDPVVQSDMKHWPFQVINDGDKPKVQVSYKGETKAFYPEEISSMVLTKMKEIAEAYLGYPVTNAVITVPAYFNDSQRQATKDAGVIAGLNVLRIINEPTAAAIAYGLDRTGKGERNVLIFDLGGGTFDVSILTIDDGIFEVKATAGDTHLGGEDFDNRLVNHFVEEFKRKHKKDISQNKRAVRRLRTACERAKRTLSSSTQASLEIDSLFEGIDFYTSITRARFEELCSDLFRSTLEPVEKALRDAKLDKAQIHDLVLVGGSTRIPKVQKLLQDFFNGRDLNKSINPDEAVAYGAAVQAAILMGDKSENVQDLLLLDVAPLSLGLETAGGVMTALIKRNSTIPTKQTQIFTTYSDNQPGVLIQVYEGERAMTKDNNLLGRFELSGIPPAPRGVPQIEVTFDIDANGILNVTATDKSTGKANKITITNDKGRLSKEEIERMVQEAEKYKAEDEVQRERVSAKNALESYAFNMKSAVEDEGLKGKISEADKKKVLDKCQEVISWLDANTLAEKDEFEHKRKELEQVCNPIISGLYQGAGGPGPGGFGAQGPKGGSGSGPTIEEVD

As to `NS(=O)(=O)C#Cc1ccccc1` [Pif, pifithrin], the “citrate synthase thermoprotection (chaperone) assay, 412 nm DTNB” value is listed as “Similarly, Pif also inhibits thermos-protection by HSP70”.

The values are drawn from publication PMC5827756, “Inhibition of Heat Shock proteins HSP90 and HSP70 induce oxidative stress, suppressing cotton fiber development” (Scientific Reports, 2018).
